Source: ChEMBL document CHEMBL1201862, “PubChem BioAssay data set” (2004)
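Following 48 hours of exposure in 96-well plates, responses at five concentrations were used to interpolate endpoints linearly. At the GI50, growth is halved.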 Active and inactive are the calls of the source. No stated cut-off is given here; in the data, active = GI50 up to about 1.1 µM and inactive = higher.

What was measured:
Test in all cases: NCI anticancer screen, dose series, 48 h
SK-MEL-5 = test system: SK-MEL-5
HL-60 = test system: HL-60
COLO 205 = test system: COLO 205
M14 = test system: M14
U-251 = test system: U-251
HT-29 = test system: HT-29
EKVX = test system: EKVX
K562 = test system: K562
TK-10 = test system: TK-10
NCI-H226 = test system: NCI-H226
UO-31 = test system: UO-31
HCT-15 = test system: HCT-15
SR = test system: SR
NCI-H23 = test system: NCI-H23
HCC 2998 = test system: HCC 2998
SK-MEL-28 = test system: SK-MEL-28
SF-539 = test system: SF-539
SF-295 = test system: SF-295
786-0 = test system: 786-0
SF-268 = test system: SF-268

Row | SMILES | GI50 (SK-MEL-5) | GI50 (HL-60) | GI50 (COLO 205) | GI50 (M14) | GI50 (U-251) | GI50 (HT-29) | GI50 (EKVX) | GI50 (K562) | GI50 (TK-10) | GI50 (NCI-H226) | GI50 (UO-31) | GI50 (HCT-15) | GI50 (SR) | GI50 (NCI-H23) | GI50 (HCC 2998) | GI50 (SK-MEL-28) | GI50 (SF-539) | GI50 (SF-295) | GI50 (786-0) | GI50 (SF-268)
1 | CC(C)(C)OC(=O)NC(CSSCC(NC(=O)OC(C)(C)C)C(=O)O)C(=O)O (stereo not given) | > 100 µM (inactive) | > 100 µM (inactive) | > 100 µM (inactive) | > 100 µM (inactive) | > 100 µM (inactive) | > 100 µM (inactive) | > 100 µM (inactive) | > 100 µM (inactive) | > 100 µM (inactive) | > 100 µM (inactive) | > 100 µM (inactive) | > 100 µM | > 100 µM (inactive) | > 100 µM (inactive) | > 100 µM (inactive) | > 100 µM (inactive) | > 100 µM (inactive) | > 100 µM (inactive) | > 100 µM (inactive) | > 100 µM (inactive)
2 | Cc1ccc(/C=C2\Cc3c(C)cc(C)cc3C2=O)c(C(=O)O)c1 | 25.8 µM (inactive) | 23.1 µM (inactive) | 34.8 µM (inactive) | > 100 µM (inactive) | 29.9 µM (inactive) | 45.3 µM (inactive) | 33.4 µM (inactive) | 54.7 µM (inactive) | 83.4 µM (inactive) | 23.8 µM (inactive) | 50.7 µM (inactive) | 36.3 µM | 29.4 µM (inactive) | 55.5 µM (inactive) | 38.4 µM (inactive) | 56.2 µM (inactive) | 15.9 µM (inactive) | 41.9 µM (inactive) | 61.5 µM (inactive) | 40.5 µM (inactive)
3 | C=C1CC[C@](C)(O)[C@@]2(C)CC[C@H]3C(=C(C)C)C(=O)C[C@]3(C)C[C@H]12 | 22.1 µM (inactive) | 7.6 µM (inactive) | 36.1 µM (inactive) | 37.5 µM (inactive) | > 50 µM (inactive) | 18.3 µM (inactive) | > 50 µM (inactive) | 8.73 µM (inactive) | > 50 µM (inactive) | > 50 µM (inactive) | 20 µM (inactive) | 14.9 µM | 13.4 µM (inactive) | > 50 µM (inactive) | 23 µM (inactive) | 43.7 µM (inactive) | > 50 µM (inactive) | > 50 µM (inactive) | 14.6 µM (inactive) | > 50 µM (inactive)
